Test results reported in paper PMC5473904, “Epigenetic and antitumor effects of platinum(IV)-octanoato conjugates” (Scientific Reports, 2017).

Experiments:
[1] = log P (octanol/water) by shake flask method; format: physicochemical; details: 0.2 M aqueous NaCl
Protocol: To quantify the hydrophobicity of the platinum complexes, the shake-flask method was used to measure partition coefficients (log P) values for octanol/water.
To determine the partition coefficient (P) the shake flask method was used. Octanol-saturated water (OSW) and water-saturated octanol (WSO) were prepared using analytical grade octanol and 0.2 M aqueous NaCl solution (to suppress hydrolysis of the chlorido complexes). […] Mixing was done by vortexing for 30 min at room temperature to establish the partition equilibrium. To separate the phases, centrifugation was done at 3000 g for 5 min. The aqueous layer was carefully separated from the octanol layer for platinum analysis. Platinum was quantified from aliquots taken from the octanol-saturated aqueous samples before and after partition by ICP-MS.

[2] = tested on: Lewis lung carcinoma (LLC); experiment: In vivo antitumor activity in Lewis lung carcinoma; details: LLC in C57BL mice; for Average tumor weight (mean ± SD): 20 mg kg^−1 daily orally day 7–14, day 15; for Inhibition of tumor growth: 20 mg kg^−1 daily orally day 7–14, day 15, referred to control animals
Protocol: Xenograft LLC tumors were grown in C57BL mice that were subsequently treated with […] of either Pt(IV) complex. Pt(IV) prodrugs were administered by oral gavage by taking advantage of their excellent stability, enabling in vivo oral formulation making platinum therapy safer lessening side effects and partially overcoming resistance to platinum(II) drugs, [35]. The schedule of Pt(IV) prodrug administration in vivo was initially determined by assessing the total dose that could be injected without undue toxicity in nontumor-bearing C57BL mice. From day 7 after tumor inoculation, when tumors became visible, tumor-bearing mice received daily doses of the Pt(IV) derivatives (20 mg kg^−1, by oral gavage).
The LLC cell line was purchased from ECACC, United Kingdom. The LLC cell line was maintained in DMEM (Euroclone) supplemented with 10% heat-inactivated fetal bovine serum (FBS; Euroclone), 10 mM L-glutamine, 100 U mL^−1 penicillin, and 100 μg mL^−1 streptomycin in a 5% CO2 air incubator at 37 °C. The LLC was implanted intramuscularly (im) as a 2 × 10^6 cell inoculum into the right hind leg of 8-week old male and female C57BL mice (24 ± 3 g body weight). […] At day 15, animals were sacrificed, the legs were amputated at the proximal end of the femur, and the inhibition of tumor growth was determined according to the difference in weight of the tumor-bearing leg, and the healthy leg of the animals expressed as a percentage referred to the control animals. Body weight was measured every two days and was taken as a parameter for systemic toxicity. All the values are the means ± SD of not less than three measurements.

A2780 cells = experiment: Pt accumulation in A2780 cells with and without serum, BSA or lipoproteins; format: cell-based, human; details: A2780, 10 μM, 4 h
Protocol: Interactions with serum proteins
The trends observed in the results of the in vivo antitumor activity experiments, such as the tissue biodistribution (Fig. S2A), blood levels (Fig. S2B), and cellular accumulation (Table 2) of Pt(IV) complexes could be also related to their sequestration by plasma proteins, mainly by 8 human serum albumin . Thus, the accumulation experiments in cellulo were carried out employing A2780 cells without serum (and therefore without BSA) in the culture medium. As shown in Fig. S3, when passing from the treatment in complete medium (+FBS) to the […]
Supplementary Figure S3: Pt accumulation in A2780 cells treated with Pt(IV) prodrugs […]
treatment in complete medium (+FBS) and in serum-free medium (- FBS). Data are means of at least three replicates and were tested using the two sample t-test (***p<0.001). […]
medium supplemented with 10% FBS contains 30 µM BSA, which is known to transport octanoate9,10, and 300 μg mL-1 cholesterol in the most lipophilic component, i.e. lipoproteins11, which are known to transport lipophilic drugs12,13. To verify whether the accumulation of Pt(IV)diOA could be mainly affected by BSA or lipoproteins, the experiments were repeated in serum-free medium supplemented with BSA (-FBS, + BSA) or LPC, lipoprotein-rich cholesterol (-FBS + LPC), respectively (see experimental part). As […]
(1 picture or pasted object on this page, not shown here)
(control, -FBS), in serum-free medium supplemented with 30 µM BSA (-FBS, + BSA), with lipoproteins (-FBS + LPC), and in complete medium (+FBS). Data are means of at least three replicates and were tested using the two sample t-test (***p<0.001). […]
Co.) and transferred into a microwave Teflon vessel. Subsequently, samples were submitted to the standard procedure using a speed microwave. After cooling, each mineralized sample was analyzed for platinum by ICP-MS (ThermoOptek X Series 2). Instrumental settings were optimized to achieve maximum sensitivity for platinum. For quantitative determination, the most abundant isotopes of platinum and indium (used as internal standard) were measured at m/z 195 and 115, respectively.
Accumulation of platinum in tumor cells treated with Pt(IV) complexes and cisplatin (in cellulo experiments) in the absence of serum. A2780 cells were seeded in 10 mm Petri dishes and treated with the platinum complexes (10 μM) for 4 h in complete medium, i.e. + 10 % FBS (HyClone, GE Healthcare). At time zero, 100 μL of medium was taken out from each sample to check the extracellular Pt concentration. […]
The level of Pt found in cells after drug treatment and normalized 6 upon the cell number (cellular Pt accumulation) was expressed as ng Pt per 10 cells. […]

[3] = tested on: A2780 human ovarian carcinoma cells; set-up: method as in PMID 25888926; details: compared with Pt(IV)diOA value of Table 1; cited from earlier work
[4] = set-up: method as in PMID 25888926; details: valproato complexes; cited from earlier work
[5] = tested on: MCF-7 human breast cancer cells; set-up: method as in PMID 25888926; details: compared with Pt(IV)diOA value of Table 1; cited from earlier work

| SMILES | log P [1] | Average tumor weight (mean ± SD) [2] | Inhibition of tumor growth [2] | Change of Pt accumulation from complete medium (+FBS) to serum-free medium (-FBS) (A2780 cells) | Effect of BSA addition to serum-free medium on Pt accumulation (A2780 cells; -FBS + BSA) | Effect of LPC (lipoprotein-rich cholesterol) supplementation of serum-free medium on Pt accumulation (A2780 cells; -FBS + LPC) | IC50 [3] | logP [4] | IC50 [5] |
| --- | --- | --- | --- | --- | --- | --- | --- | --- | --- |
| CC(=O)[O][Pt]([NH2])([NH2])([Cl])([Cl])[O]C(C)=O [Pt(IV)diAc, cis, cis, trans-[Pt(IV)(NH3)2Cl2(Ac)2]] | −1.85 ± 0.09 | – | – | – | – | – | – | – | – |
| CCCCCCCC(=O)[O][Pt]([NH2])([NH2])([Cl])([Cl])[O]C(=O)CCCCCCC [Pt(IV)diOA, cis, cis, trans-[Pt(IV)(NH3)2Cl2(OA)2]] | – | 0.025 ± 0.03 g | 95% | 3 fold | negligible effect | decreased Pt accumulation | – | – | – |
| CCCC(CCC)C(=O)[O][Pt]([NH2])([NH2])([Cl])([Cl])[O]C(=O)C(CCC)CCC [Pt(IV)diVPA, cis, cis, trans-[Pt(IV)(NH3)2Cl2(VPA)2]] | – | 0.174 ± 0.08 g | 68% | no significant change | – | – | 250 ± 90 nM | 0.25 | 900 ± 300 nM |
